Measured values from patent publication US20250360111A1, “COMPOSITIONS OF AGPAT4 INHIBITORS AND METHODS OF USING THEREOF TO TREAT CANCER” (The University of Hong Kong, priority 2024, published 2025).
pIC50: −log10 of the molar value.

What was measured:
[1] = target: T1, Purified human AGPAT4 protein (Homo sapiens, UniProt Q9NRZ5); assay: In vitro binding to AGPAT4 by gel-based ABPP (competition with IA-rhodamine); conditions: loss of IA-rhodamine fluorescence
T1 construct: The open reading frame (ORF) encoding the mRNA of AGPAT4 was cloned into pGEX-4T1; made in house; host or cells: Escherichia coli BL21
T1 sequence (Q9NRZ5 1-378): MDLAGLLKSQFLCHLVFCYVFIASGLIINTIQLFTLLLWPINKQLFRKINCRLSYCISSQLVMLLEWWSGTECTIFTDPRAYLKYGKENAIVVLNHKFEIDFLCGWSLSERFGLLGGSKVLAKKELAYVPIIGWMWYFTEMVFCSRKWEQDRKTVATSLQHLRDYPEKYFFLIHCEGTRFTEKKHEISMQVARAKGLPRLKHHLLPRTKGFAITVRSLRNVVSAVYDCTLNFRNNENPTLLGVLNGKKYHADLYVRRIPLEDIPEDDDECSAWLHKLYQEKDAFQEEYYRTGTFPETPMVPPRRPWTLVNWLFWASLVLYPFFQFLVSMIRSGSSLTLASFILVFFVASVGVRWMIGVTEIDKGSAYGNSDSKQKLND
Procedure: Purified human AGPAT4 protein (0.1 μg) was incubated with library compounds at 25 μM (unless indicated) for 1 h at room temperature, followed by incubation with IA-rhodamine (1 μM) for 1 h. Sampling buffer was added and the samples were denatured by boiling at 90° C. The samples were resolved by SDS-PAG E and fluorescence signals were captured using ChemiDoc MP (Bio-Rad) before silver staining to assess protein loading. The band fluorescence intensity was quantified using the ImageJ software.

AGPAT4 [2] = target: T2, AGPAT4 (Homo sapiens, UniProt Q9NRZ5); assay: Competitive gel-based ABPP in live cells with CL26-alkyne probe; assay type: cell-based; conditions: Huh7 cells stably expressing FLAG-AGPAT4
T2 construct: The open reading frame (ORF) encoding the mRNA of AGPAT4 was cloned into the pDONR-221 donor vector; expressed in transfected cells; host or cells: Huh7
T2 sequence (Q9NRZ5 1-378): T1 sequence (Q9NRZ5 1-378)
Procedure: (§1) An in-gel fluorescence assay was performed to investigate the protein targets of CL26. Huh7 cells overexpressing AGPAT4 or cysteine mutants were pre-treated with CL26 at the indicated concentrations for 2 h, followed by CL26-alkyne (1 μM) treatment for another 2 h. Cells were harvested in RIPA buffer supplemented with protease and phosphatase inhibitors (Thermo Fisher Scientific #A32961). The proteins were precipitated by incubation with 6× volume of pre-chilled acetone at −20° C. overnight. Proteins were pelleted by centrifugation at 5000 g for 10 min and resuspended in PBS. The protein content was measured using the BCA assay and normalized to 2 mg/mL. Cell lysates (50 μL) were labelled with azide-fluor 545 by click reaction (final reaction mixture: azide-fluor 545 (25 μM), copper(II) sulfate (1 mM), TBTA (100 μM), and freshly prepared TCEP (1 mM)) at room temperature with constant agitation. After incubation for 1 h, the reaction was quenched with the sampling buffer and boiled at 90° C. for 5 min. Samples were subjected to SDS-PAGE, in-gel fluorescence was captured using ChemiDoc MP (Bio-Rad), and Coomassie Blue staining was performed. Similarly, immunoblotting was used to investigate the protein targets of CL26. Huh7 cells stably transfected with FLAG-AGPAT4 were pre-treated with either the solvent control or CL26 at the indicated concentrations for 2 h, followed by CL26-alkyne (10 μM) treatment for another 2 h. Cells were harvested, and lysates were prepared as described above unless specified. Anti-FLAG M 2 affinity beads were added in FLAG-tag pull-down experiments. After 4 h of incubation at 4° C., the beads were washed with TBS-T and resuspended in TBS-T. Sampling buffer was added and the samples were boiled for protein elution. The samples were subjected to SDS-PAG E and imaged for fluorescence signals before western blot analysis. In the probe pull-down experiment, 1 mL of lysate was labelled with desthiobiotin (DTB)-azide by a click reaction (final reaction mixture: copper(II) sulfate (1 mM), TBTA (100 μM), DTB-PEG-azide (100 μM), and freshly prepared TCEP (1 mM)). […]

AGPAT4 [3] = assay: as above; assay type: cell-based, human; conditions: Huh7 cells, empty vector vs FLAG-AGPAT4; silver staining of enriched proteins
Procedure: as §1

[4] = test system: AGPAT LPAAT family members (AGPAT1, 2, 3, 4 and 5); assay: Isoform specificity: streptavidin pulldown and immunoblotting of CL26-alkyne-bound proteins; assay type: cell-based, human; conditions: Huh7 cells, DTB-PEG-azide, streptavidin pulldown
Procedure: An in-gel fluorescence assay was performed to investigate the protein targets of CL26. Huh7 cells overexpressing AGPAT4 or cysteine mutants were pre-treated with CL26 at the indicated concentrations for 2 h, followed by CL26-alkyne (1 μM) treatment for another 2 h. Cells were harvested in RIPA buffer supplemented with protease and phosphatase inhibitors (Thermo Fisher Scientific #A32961). The proteins were precipitated by incubation with 6× volume of pre-chilled acetone at −20° C. overnight. Proteins were pelleted by centrifugation at 5000 g for 10 min and resuspended in PBS. The protein content was measured using the BCA assay and normalized to 2 mg/mL. Cell lysates (50 μL) were labelled with azide-fluor 545 by click reaction (final reaction mixture: azide-fluor 545 (25 μM), copper(II) sulfate (1 mM), TBTA (100 μM), and freshly prepared TCEP (1 mM)) at room temperature with constant agitation. After incubation for 1 h, the reaction was quenched with the sampling buffer and boiled at 90° C. for 5 min. Samples were subjected to SDS-PAGE, in-gel fluorescence was captured using ChemiDoc MP (Bio-Rad), and Coomassie Blue staining was performed. Similarly, immunoblotting was used to investigate the protein targets of CL26. […] The samples were subjected to SDS-PAG E and imaged for fluorescence signals before western blot analysis. […]

Animal toxicity studies = assay type: in vivo, C57BL/6 mice; conditions: 1 mg/kg or 10 mg/kg intraperitoneally
Procedure: C57BL/6 mice were administered CL26 at a low dose (1 mg/kg) or high dose (10 mg/kg) intraperitoneally to evaluate potential tissue damage associated with CL26 exposure. Major organs, including the liver, spleen, pancreas, kidney, heart, and lungs, were weighed prior to fixation in 10% formalin for subsequent paraffin embedding and H& E staining. Additionally, the serum concentrations of alanine aminotransferase (ALT) and aspartate aminotransferase (AST) were measured. The above analysis was performed at the Veterinary Diagnostic Laboratory of the City University of Hong Kong.

[5] = test system: HCC PDX model #1 and sorafenib-resistant HCC PDX model #2
Text: HCC PDX #1 were first expanded in NOD-SCID mice as described previously (21). Sorafenib-resistant HCC PDX #2 was established and expanded as described previously (29). Dissociated PDX tumors (5×10^5 cells in 100% Matrigel) were orthotopically injected into the left lobes of the livers of 6-week-old BA L B/c nude mice (n=6-10 per group). Drug administration was initiated three weeks after inoculation. The mice were then randomized for treatment with DMSO, sorafenib, 30% PET (30% PEG400/15% ethanol/5% Tween 80 in saline), or CL26 (1 mg/kg or 10 mg/kg, delivered intraperitoneally thrice per week). Seven weeks post-inoculation, tumor-bearing mice were sacrificed. The livers were harvested for histological and ex vivo limiting dilution analyses.

[6] = sorafenib orally plus CL26 intraperitoneally

With `O=C(CCl)NCc1ccc(-c2nc3ccccc3s2)o1` [CL26, N-[[5-(2-benzothiazolyl)-2-furanyl]methyl]-2-chloroacetamide] as the compound, how does the pIC50 [1] read?
The pIC50 was 6.12.

What about the “in-gel fluorescence of CL26-alkyne-bound AGPAT4 upon CL26 pre-treatment (target engagement)” value (AGPAT4 [2]) of the same compound?
Its value is “significant decrease in fluorescence intensity”.

What about the off-target binding (AGPAT4 [3]) of the same compound?
The off-target binding was “minimal off-target binding”.

And the “specificity for AGPAT4 over other AGPAT LPAAT family members” value [4]?
Its value is “only targets AGPAT4 and no other related AGPAT isoforms”.

And the “blood chemistry (AST, ALT), major organ weight and histology vs control mice” value (Animal toxicity studies)?
The value was “no significant differences”.

And the “toxicity associated with treatment” value (Animal toxicity studies)?
Its value is “minimal toxicity”.

What about the “body weight vs control group” value ([5]; PDX mice treated with CL26) of the same compound?
The value was “did not exhibit significant differences in body weight”.

What about the “p-mTOR levels, multiplex immunohistochemistry” value ([5]; PDX tumors) of the same compound?
Its value is “reduction in p-mTOR levels”.

And the “self-renewal ability, ex vivo limiting dilution analysis” value ([5]; combination with sorafenib)?
Its value is “decreased self-renewal ability”.

What about the survival rate ([5]; combination with sorafenib, HCC PDX model #2) of the same compound?
The survival rate was “highest survival rate”.

What about the “number of tumor nodules” value [5, 6] of the same compound?
Its value is “significant effect in reducing”.

And the tumor size [5, 6]?
The tumor size was “significant effect in reducing”.

What about the tumor weight [5, 6] of the same compound?
Its tumor weight is “significant effect in reducing”.
